This is an account of results in patent US20240383905A1, “FGFR INHIBITORS AND METHODS OF USE THEREOF” (3H PHARMACEUTICALS CO., LTD., priority 2021, published 2024).

A word on the pIC50: it is −log10 of the IC50, conventionally taken in molar units.

Molecules are shown by their SMILES. pIC50: −log10 of the molar value. Like-named read-outs stand apart in the source and are kept apart here. A value given as a limit tells only on which side of the number the result lay.

In one assay the target is T1, FGFR2 (Homo sapiens, UniProt P21802).
T1 construct: purchased Carna 08-134
T1 sequence (P21802 22-821): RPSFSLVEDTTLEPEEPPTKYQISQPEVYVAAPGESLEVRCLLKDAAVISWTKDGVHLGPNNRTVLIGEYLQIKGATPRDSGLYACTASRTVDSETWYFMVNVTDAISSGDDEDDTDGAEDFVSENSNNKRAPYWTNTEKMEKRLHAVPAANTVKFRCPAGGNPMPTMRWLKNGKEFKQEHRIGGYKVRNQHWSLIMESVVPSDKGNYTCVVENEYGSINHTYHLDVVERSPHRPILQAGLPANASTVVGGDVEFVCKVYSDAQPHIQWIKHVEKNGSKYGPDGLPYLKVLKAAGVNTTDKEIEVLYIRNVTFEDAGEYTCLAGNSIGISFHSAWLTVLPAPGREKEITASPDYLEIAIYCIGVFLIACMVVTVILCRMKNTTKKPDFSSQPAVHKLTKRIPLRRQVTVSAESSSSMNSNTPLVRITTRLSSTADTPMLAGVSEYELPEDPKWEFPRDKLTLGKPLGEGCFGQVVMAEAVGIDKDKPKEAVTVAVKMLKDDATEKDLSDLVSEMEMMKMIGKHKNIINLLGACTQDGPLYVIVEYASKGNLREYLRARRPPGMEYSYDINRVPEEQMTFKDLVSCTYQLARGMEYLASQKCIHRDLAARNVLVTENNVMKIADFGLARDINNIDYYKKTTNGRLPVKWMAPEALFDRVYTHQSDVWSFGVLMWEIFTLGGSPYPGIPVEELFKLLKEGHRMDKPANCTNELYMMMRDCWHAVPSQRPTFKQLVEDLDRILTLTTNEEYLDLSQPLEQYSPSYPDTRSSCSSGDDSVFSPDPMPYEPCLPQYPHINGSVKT
As to the kind of experiment: FGFR2 Biochemical Caliper Assay (KinEASE-TK kit). The settings on record: 0.07 nM FGFR2; compound incubated with protein 10 min, reaction 45 min at RT; read-out: FGFR2 Cliper IC50.

A further assay deals with T2, FGFR1 (Homo sapiens, UniProt P11362).
T2 construct: purchased Carna 08-133
T2 sequence (P11362 22-822): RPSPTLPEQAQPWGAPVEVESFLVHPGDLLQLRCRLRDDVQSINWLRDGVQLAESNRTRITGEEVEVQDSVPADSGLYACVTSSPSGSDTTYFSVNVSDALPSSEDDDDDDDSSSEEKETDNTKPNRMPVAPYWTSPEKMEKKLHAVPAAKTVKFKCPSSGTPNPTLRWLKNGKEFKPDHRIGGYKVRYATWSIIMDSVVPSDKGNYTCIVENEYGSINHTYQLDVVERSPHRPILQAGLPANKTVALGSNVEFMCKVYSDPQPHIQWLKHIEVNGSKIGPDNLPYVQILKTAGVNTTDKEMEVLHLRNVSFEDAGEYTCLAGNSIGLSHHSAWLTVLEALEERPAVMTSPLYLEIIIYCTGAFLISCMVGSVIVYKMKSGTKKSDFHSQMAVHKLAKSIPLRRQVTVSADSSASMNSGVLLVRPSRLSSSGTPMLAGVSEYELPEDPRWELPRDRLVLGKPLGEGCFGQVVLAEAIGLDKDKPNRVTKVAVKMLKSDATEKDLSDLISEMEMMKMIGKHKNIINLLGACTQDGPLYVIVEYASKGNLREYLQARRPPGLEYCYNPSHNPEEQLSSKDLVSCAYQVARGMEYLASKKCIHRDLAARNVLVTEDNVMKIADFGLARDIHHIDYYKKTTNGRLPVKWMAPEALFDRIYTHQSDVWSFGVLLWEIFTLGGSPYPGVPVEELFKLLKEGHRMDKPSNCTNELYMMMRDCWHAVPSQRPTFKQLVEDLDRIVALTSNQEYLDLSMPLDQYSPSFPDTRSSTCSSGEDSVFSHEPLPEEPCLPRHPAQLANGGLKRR
As to the kind of experiment: FGFR1 Biochemical Caliper Assay (KinEASE-TK kit). The settings on record: ratio FGFR1/FGFR2 of the biochemical assay. The method in brief: (§1)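 KinEASE-TK HTRF readout: enzyme at 0.2 nM (FGFR1, FGFR3) preincubated 10 min at RT with 10-point 3-fold compound dilutions before TK-substrate/ATP start.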

The target of the next assay is T3, FGFR3 (Homo sapiens, UniProt P22607).
T3 construct: purchased Carna 08-135
T3 sequence (P22607 23-806): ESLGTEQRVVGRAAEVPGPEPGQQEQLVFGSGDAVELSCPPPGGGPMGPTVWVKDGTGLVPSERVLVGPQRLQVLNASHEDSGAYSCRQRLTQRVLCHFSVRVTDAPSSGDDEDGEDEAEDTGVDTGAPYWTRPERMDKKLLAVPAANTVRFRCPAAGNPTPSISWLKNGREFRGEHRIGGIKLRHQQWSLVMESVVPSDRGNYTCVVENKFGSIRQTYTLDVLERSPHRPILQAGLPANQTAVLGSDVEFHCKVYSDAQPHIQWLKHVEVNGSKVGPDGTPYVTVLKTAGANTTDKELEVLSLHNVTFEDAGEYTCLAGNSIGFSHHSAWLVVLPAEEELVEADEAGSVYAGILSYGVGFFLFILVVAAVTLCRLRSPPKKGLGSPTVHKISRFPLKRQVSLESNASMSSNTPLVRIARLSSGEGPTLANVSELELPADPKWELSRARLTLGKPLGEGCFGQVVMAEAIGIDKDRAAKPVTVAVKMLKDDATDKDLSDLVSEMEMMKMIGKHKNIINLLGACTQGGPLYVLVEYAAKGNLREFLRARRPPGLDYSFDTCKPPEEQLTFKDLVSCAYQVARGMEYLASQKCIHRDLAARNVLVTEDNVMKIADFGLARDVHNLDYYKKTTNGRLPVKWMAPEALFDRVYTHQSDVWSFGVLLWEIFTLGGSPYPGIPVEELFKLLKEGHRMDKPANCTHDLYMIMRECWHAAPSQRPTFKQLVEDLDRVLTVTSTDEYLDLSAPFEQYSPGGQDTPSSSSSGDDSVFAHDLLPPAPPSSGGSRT
As to the kind of experiment: FGFR3 Biochemical Caliper Assay (KinEASE-TK kit). The settings on record: ratio FGFR3/FGFR2 of the biochemical assay. The method in brief:
as §1

Another assay concerns SNU16 cells. As to the kind of experiment: SNU16 Cancer Cell Line Proliferation Assay (CellTiter-Glo). Format: cell-based. In short, it runs like this:
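SNU16 cells at 5000/well exposed to 9-point 3-fold serial compound dilutions (DMSO control) for 72 h at 37 °C, 5% CO2. Viability read by luminescence; IC50 calculated from dose-response.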

Consider `C=CC(=O)Nc1ccc(-c2[nH]c3c(C#N)cnc(N)c3c2-c2ccc(C(=O)NCC(F)(F)F)c(OC)c2)cc1` [Compound 248], for which the pIC50 on FGFR2 was greater than 8.30; in the assay on SNU16 cells (Homo sapiens, SNU-16, 72 h) it was no less than 8.00. The “Selectivity FGFR1/FGFR2” value on FGFR1 is on record as “C (Selectivity of FGFR1/FGFR2 less than 200 but greater than or equal to 100)”. In addition, on FGFR3, the “Selectivity FGFR3/FGFR2” value was “A+ (Selectivity of FGFR3/FGFR2 greater or equal to 150)”.
The corresponding values for `C=C(F)C(=O)Nc1ccc(-c2nn3ncnc(N)c3c2-c2ccc(C(=O)NC3CC(F)C3)c(OC)c2)c(F)c1` (centres unmarked) [Compound 249] are greater than 8.30, no less than 8.00, “C (Selectivity of FGFR1/FGFR2 less than 200 but greater than or equal to 100)” and “A+ (Selectivity of FGFR3/FGFR2 greater or equal to 150)”.
In the same order, the values of `C=C(F)C(=O)Nc1ccc(-c2[nH]c3c(C#N)cnc(N)c3c2-c2ccc(C(=O)NC3CC3)c(OC)c2)c(F)c1` [Compound 267, 4-(4-amino-7-cyano-2-(2-fluoro-4-(2-fluoroacrylamido)phe-nyl)-1H-pyrrolo[3,2-c]pyridin-3-yl)-N-cyclopropyl-2-methoxybenzamide] are greater than 8.30, no less than 8.00, “B (Selectivity of FGFR1/FGFR2 less than 300 but greater than or equal to 200)” and “A+ (Selectivity of FGFR3/FGFR2 greater or equal to 150)”.
In the same order, the values of `C=C(F)C(=O)Nc1ccc(-c2nn3ncnc(N)c3c2-c2ccc(C(=O)NC3CC3(F)F)c(OC)c2)c(F)c1` (centres unmarked) [Compound 271] are greater than 8.30, no less than 8.00, “C (Selectivity of FGFR1/FGFR2 less than 200 but greater than or equal to 100)” and “B (Selectivity of FGFR3/FGFR2 less than 100 but greater than or equal to 25)”.
Turning to `C=C(F)C(=O)Nc1ccc(-c2nn3ncnc(N)c3c2-c2ccc(C(=O)NCC(F)F)c(OC)c2)c(F)c1` [Compound 289], the pIC50 at FGFR2 is less than 8.00; in the assay with SNU16 cells (Homo sapiens, SNU-16, 72 h), no less than 8.00. Further, on FGFR1, the “Selectivity FGFR1/FGFR2” value was “C (Selectivity of FGFR1/FGFR2 less than 200 but greater than or equal to 100)”. Besides, at FGFR3, the “Selectivity FGFR3/FGFR2” value is recorded as “B (Selectivity of FGFR3/FGFR2 less than 100 but greater than or equal to 25)”.
In the case of `C=CC(=O)Nc1ccc(-c2c(-c3ccc(C(=O)NCC(F)(F)F)c(OC)c3)c3c(N)ncc(C#N)c3n2CCOC)cc1` [Compound 318, 4-(2-(4-acrylamidophenyl)-4-amino-7-cyano-1-(2-methoxyethyl)-1H-pyrrolo[3,2-c]pyridin-3-yl)-2-methoxy-N-(2,2,2-trifluoroethyl)benzamide], the pIC50 on FGFR2 is greater than 8.30; in the assay on SNU16 cells (Homo sapiens, SNU-16, 72 h) it was no less than 8.00. In addition, the “Selectivity FGFR1/FGFR2” value on FGFR1 is given as “C (Selectivity of FGFR1/FGFR2 less than 200 but greater than or equal to 100)”. The “Selectivity FGFR3/FGFR2” value at FGFR3 was “A (Selectivity of FGFR3/FGFR2 less than 150 but greater than or equal to 100)”.
In the same order, the values of `C=C(F)C(=O)Nc1ccc(-c2[nH]c3c(C#N)cnc(N)c3c2-c2ccc(C(=O)NC3CC(F)(F)C3)c(OC)c2)cc1` [Compound 319, 4-(4-amino-7-cyano-2-(4-(2-fluoroacrylamido)phe-nyl)-1H-pyrrolo[3,2-c]pyridin-3-yl)-N-(3,3-difluorocyclobutyl)-2-methoxybenzamide] are greater than 8.30, no less than 8.00, “A (Selectivity of FGFR1/FGFR2 less than 500 but greater than or equal to 300)” and “A+ (Selectivity of FGFR3/FGFR2 greater or equal to 150)”.
The corresponding values for `C=C(F)C(=O)Nc1ccc(-c2[nH]c3c(C#N)cnc(N)c3c2-c2ccc(C(=O)NC3(C)CC3)c(OC)c2)cc1` [Compound 321, 4-(4-amino-7-cyano-2-(4-(2-fluoroacrylamido)phe-ny1)-1H-pyrrolo[3,2-c]pyridin-3-yl)-2-methoxy-N-(1-methylcyclopropyl)benzamide] are 8.00 to 8.30, no less than 8.00, “C (Selectivity of FGFR1/FGFR2 less than 200 but greater than or equal to 100)” and “A+ (Selectivity of FGFR3/FGFR2 greater or equal to 150)”.
In the same order, the values of `C=CC(=O)Nc1ccc(-c2nn3ncnc(N)c3c2-c2ccc(NC(=O)C3CC3(F)F)c(OC)c2)cc1` (centres unmarked) [Compound 339, N-(4-(6-(4-acrylamidophenyl)-4-aminopyrazolo[5,1-f][1,2,4]triazin-5-yl)-2-methoxyphenyl)-2,2-difluorocyclopropane-1-carboxamide] are less than 8.00, no less than 8.00, “C (Selectivity of FGFR1/FGFR2 less than 200 but greater than or equal to 100)” and “B (Selectivity of FGFR3/FGFR2 less than 100 but greater than or equal to 25)”.
As to `C=CC(=O)Nc1ccc(-c2nn3ncnc(N)c3c2-c2ccc(NC(=O)C3CC(F)(F)C3)c(OC)c2)cc1` [Compound 340, N-(4-(6-(4-acrylamidophenyl)-4-aminopyrazolo[5,1-f][1,2,4]triazin-5-yl)-2-methoxyphenyl)-3,3-difluorocyclobutane-1-carboxamide], the pIC50 is less than 8.00 at FGFR2 and no less than 8.00 in the assay on SNU16 cells (Homo sapiens, SNU-16, 72 h). The “Selectivity FGFR1/FGFR2” value on FGFR1 is listed as “B (Selectivity of FGFR1/FGFR2 less than 300 but greater than or equal to 200)”. Moreover, the “Selectivity FGFR3/FGFR2” value at FGFR3 is on record as “A (Selectivity of FGFR3/FGFR2 less than 150 but greater than or equal to 100)”.
The corresponding values for `C=CC(=O)Nc1ccc(-c2c(-c3ccc(C(=O)NC4CC4)c(OC)c3)c3c(N)ncc(C#N)c3n2CC(F)(F)F)cc1` [Compound 342] are greater than 8.30, no less than 8.00, “B (Selectivity of FGFR1/FGFR2 less than 300 but greater than or equal to 200)” and “A+ (Selectivity of FGFR3/FGFR2 greater or equal to 150)”.
`C=C(F)C(=O)Nc1ccc(-c2c(-c3ccc(Oc4nccc(C)n4)c(F)c3)c3c(N)ncc(C#N)c3n2C)cc1` [Compound 344, N-(4-(4-amino-7-cyano-3-(3-fluoro-4-((4-methylpyrimidin-2-yl)oxy)phenyl)-1-methyl-1H-pyrrolo[3,2-c]pyridin-2-yl)phenyl)-2-fluoroacrylamide]: the pIC50 was greater than 8.30 at FGFR2 and no less than 8.00 with SNU16 cells (Homo sapiens, SNU-16, 72 h). The “Selectivity FGFR1/FGFR2” value at FGFR1 was “A+ (Selectivity of FGFR1/FGFR2 greater or equal to 500)”. At FGFR3, the “Selectivity FGFR3/FGFR2” value is given as “A (Selectivity of FGFR3/FGFR2 less than 150 but greater than or equal to 100)”.
The corresponding values for `C=CC(=O)Nc1ccc(-c2c(-c3ccc(C(=O)NCC(F)(F)F)c(OC)c3)c3c(N)ncc(C#N)c3n2C2CC2)cc1` [Compound 351] are greater than 8.30, no less than 8.00, “A+ (Selectivity of FGFR1/FGFR2 greater or equal to 500)” and “B (Selectivity of FGFR3/FGFR2 less than 100 but greater than or equal to 25)”.
In the same order, the values of `[2H]C([2H])([2H])n1c(-c2ccc(NC(=O)C=C)cc2)c(-c2ccc(C(=O)NCC(F)(F)F)c(OC)c2)c2c(N)ncc(C#N)c21` [Compound 355, 4-(2-(4-acrylamidophenyl)-4-amino-7-cyano-1-(methyl-d3)-1H-pyrrolo[3,2-c]pyridin-3-yl)-2-methoxy-N-(2,2,2-trifluoroethyl)benzamide] are greater than 8.30, no less than 8.00, “A (Selectivity of FGFR1/FGFR2 less than 500 but greater than or equal to 300)” and “A+ (Selectivity of FGFR3/FGFR2 greater or equal to 150)”.
The corresponding values for `C=C(F)C(=O)Nc1ccc(-c2nn3ncnc(N)c3c2-c2ccc(C(=O)NC3(C(F)(F)F)CC3)c(OC)c2)c(F)c1` [Compound 356] are greater than 8.30, no less than 8.00, “A (Selectivity of FGFR1/FGFR2 less than 500 but greater than or equal to 300)” and “A (Selectivity of FGFR3/FGFR2 less than 150 but greater than or equal to 100)”.
Take `C=C(F)C(=O)Nc1ccc(-c2nn3ncnc(N)c3c2-c2ccc(C(=O)NC34CC(C3)C4)c(OC)c2)c(F)c1` [Compound 357, 4-(4-amino-6-(2-fluoro-4-(2-fluoroacryl amido)phenyl)pyrazolo[5,1-f][1,2,4]triazin-5-yl)-N-(bicyclo[1.1.1]pentan-1-yl)-2-methoxybenzamide]: the pIC50 at FGFR2 is greater than 8.30; in the assay on SNU16 cells (Homo sapiens, SNU-16, 72 h), no less than 8.00. For the same compound, on FGFR1, the “Selectivity FGFR1/FGFR2” value is “A (Selectivity of FGFR1/FGFR2 less than 500 but greater than or equal to 300)”. Moreover, at FGFR3, the “Selectivity FGFR3/FGFR2” value was “A+ (Selectivity of FGFR3/FGFR2 greater or equal to 150)”.
`C=C(F)C(=O)Nc1ccc(-c2nn3ncnc(N)c3c2-c2ccc(C(=O)NCC3(C(F)(F)F)CC3)c(OC)c2)c(F)c1` [Compound 358, 4-(4-amino-6-(2-fluoro-4-(2-fluoroacrylamido)phenyl)pyrazolo[5,1-f] [1,2,4]triazin-5-yl)-2-methoxy-N-((1-(trifluoromethyl)cyclo-propyl)methyl) benzamide]: the pIC50 on FGFR2 is greater than 8.30; in the assay on SNU16 cells (72 h, read-out: Cell SNU-16 IC50), no less than 8.00. For the same compound, on FGFR1, the “Selectivity FGFR1/FGFR2” value is listed as “A+ (Selectivity of FGFR1/FGFR2 greater or equal to 500)”. The “Selectivity FGFR3/FGFR2” value at FGFR3 is “A (Selectivity of FGFR3/FGFR2 less than 150 but greater than or equal to 100)”.
